According to ChEMBL document CHEMBL3217571, “Structureactivity relationships of novel iodinated quinoline-2-carboxamides for targeting the translocator protein” (Medchemcomm, 2013):

Legend:
[1] = Permeability of the compound using immobilized artificial membrane; format: physicochemical
serum albumin = serum albumin (Homo sapiens, UniProt P02768); assay: Binding affinity to human serum albumin by HPLC analysis; format: ADME; conditions: read-out: PB (converted)
Translocator protein = Translocator protein (Rattus norvegicus, UniProt P16257); assay: Displacement of [3H]-PK11195 from TSPO in Sprague-Dawley rat brain homogenates after 90 mins by liquid scintillation counting analysis; format: tissue-based
Translocator protein, sequence (P16257 whole entry, looked up): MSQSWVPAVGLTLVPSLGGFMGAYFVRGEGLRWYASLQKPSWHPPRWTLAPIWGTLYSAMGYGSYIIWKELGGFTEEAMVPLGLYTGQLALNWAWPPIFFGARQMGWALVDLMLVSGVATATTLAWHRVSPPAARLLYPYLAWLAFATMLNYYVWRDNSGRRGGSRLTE

serum albumin, sequence (P02768 whole entry): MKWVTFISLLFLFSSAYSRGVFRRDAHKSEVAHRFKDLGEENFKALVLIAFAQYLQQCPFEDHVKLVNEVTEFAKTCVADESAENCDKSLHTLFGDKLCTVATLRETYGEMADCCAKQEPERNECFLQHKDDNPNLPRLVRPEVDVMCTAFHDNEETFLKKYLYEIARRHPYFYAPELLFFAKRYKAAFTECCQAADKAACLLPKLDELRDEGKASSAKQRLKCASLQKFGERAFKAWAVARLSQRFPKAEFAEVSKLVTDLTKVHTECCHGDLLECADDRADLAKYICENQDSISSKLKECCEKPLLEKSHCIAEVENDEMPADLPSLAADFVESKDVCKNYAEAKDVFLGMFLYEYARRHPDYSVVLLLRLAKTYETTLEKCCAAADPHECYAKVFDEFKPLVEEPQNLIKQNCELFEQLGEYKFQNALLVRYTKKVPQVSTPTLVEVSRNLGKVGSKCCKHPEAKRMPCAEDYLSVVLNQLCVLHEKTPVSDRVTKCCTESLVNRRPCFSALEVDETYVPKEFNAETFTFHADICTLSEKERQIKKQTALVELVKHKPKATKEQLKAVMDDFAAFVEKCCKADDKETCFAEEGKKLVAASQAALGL

| Compound | Pm [1] | fraction unbound (serum albumin) | Ki (Translocator protein) |
| --- | --- | --- | --- |
| O=C(c1cc(-c2ccccc2)c2cc(F)ccc2n1)N1CCOCC1 | 0.25 | 0.122 | 5740 nM |
| CN(C)C(=O)c1nc2ccccc2c(-c2ccccc2)c1CI | 0.55 | 0.0498 | 1340 nM |
| O=C(c1nc2ccccc2c(-c2ccccc2)c1CI)N1CCOCC1 | 0.54 | 0.047 | 27.8 nM |
| O=C(c1cc(-c2ccccc2)c2cc(I)ccc2n1)N1CCOCC1 | 0.55 | 0.0462 | 29900 nM |
| O=C(c1cc(-c2ccccc2)c2cccc(I)c2n1)N1CCOCC1 | 0.41 | 0.0181 | 76100 nM |
| O=C(c1cc(-c2ccccc2I)c2ccccc2n1)N1CCOCC1 | 0.26 | 0.0876 | 929 nM |
| CCN(CC)C(=O)c1cc(-c2ccccc2I)c2ccccc2n1 | 0.67 | 0.0591 | 5.01 nM |
| CCC(C)N(C)C(=O)c1cc2ccccc2c(-c2ccccc2Cl)n1 (stereo not drawn) [PK-11195] | 0.64 | 0.0772 |  |
